Laboratory results: ChEMBL document CHEMBL1201862, “PubChem BioAssay data set” (2004)
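Dose response: 5 concentrations. Exposure: 48 h. Format: 96-well plates. Endpoint: linear interpolation; highest concentration if not reached. GI50 marks 50% less growth.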 Active and inactive are the calls of the source. No stated cut-off is given here; in the data, active = GI50 up to about 1.1 µM and inactive = higher.

Assays:
Test in all cases: NCI anticancer screen, dose series, 48 h
[1] = system: OVCAR-8
[2] = system: SK-MEL-2
[3] = system: KM12
[4] = system: HCC 2998
[5] = system: HT-29
[6] = system: HOP-62
[7] = system: M14
[8] = system: HCT-116
[9] = system: NCI-H226
[10] = system: UACC-62
[11] = system: EKVX
[12] = system: CAKI-1
[13] = system: A549
[14] = system: SK-MEL-28
[15] = system: NCI-H522
[16] = system: U-251
[17] = system: IGROV-1
[18] = system: SK-MEL-5
[19] = system: SK-OV-3

Row | Compound | GI50 [1] | GI50 [2] | GI50 [3] | GI50 [4] | GI50 [5] | GI50 [6] | GI50 [7] | GI50 [8] | GI50 [9] | GI50 [10] | GI50 [11] | GI50 [12] | GI50 [13] | GI50 [14] | GI50 [15] | GI50 [16] | GI50 [17] | GI50 [18] | GI50 [19]
1 | COC(=O)CCSC(=O)Nc1ccccc1Cl | > 100 µM (inactive) | > 100 µM (inactive) | > 100 µM (inactive) | > 100 µM (inactive) | > 100 µM (inactive) | > 100 µM (inactive) | > 100 µM (inactive) | > 100 µM (inactive) | > 100 µM (inactive) | > 100 µM (inactive) | > 100 µM (inactive) | > 100 µM (inactive) | > 100 µM (inactive) | > 100 µM (inactive) | 1.36 µM (inactive) | > 100 µM (inactive) |  |  | 
2 | COc1ccc(/N=N/c2c(-c3ccccc3)nn(C(=O)CC(=O)Nc3cccc(Cl)c3)c2-c2ccccc2)cc1 | > 100 µM (inactive) | > 100 µM (inactive) | 10.9 µM (inactive) | 21.5 µM (inactive) | > 100 µM (inactive) | 24.2 µM (inactive) |  | 45.6 µM (inactive) | 4.82 µM (inactive) | > 100 µM (inactive) | 29.4 µM (inactive) | 34.5 µM (inactive) | 32.3 µM (inactive) | > 100 µM (inactive) | 43 µM (inactive) | > 100 µM (inactive) | > 100 µM (inactive) | 72.9 µM (inactive) | > 100 µM (inactive)
3 | CSc1nc(NC2OCC(O)C(O)C2O)c(N)c(=O)[nH]1 (configuration not stated) | > 100 µM (inactive) | > 100 µM (inactive) | > 100 µM (inactive) | > 100 µM (inactive) | > 100 µM (inactive) | > 100 µM (inactive) |  | > 100 µM (inactive) | > 100 µM (inactive) | > 100 µM (inactive) | > 100 µM (inactive) |  | > 100 µM (inactive) | > 100 µM (inactive) | > 100 µM (inactive) | > 100 µM (inactive) | > 100 µM (inactive) | > 100 µM (inactive) | > 100 µM (inactive)
4 | COc1cc2c(c3c1c(=O)c1ccccc1n3C)C=C([N+](=O)[O-])C(C)(C)O2 | 0.532 µM (active) | 0.0991 µM (active) | > 100 µM (inactive) | 0.325 µM (active) | 0.522 µM (active) | 30.9 µM (inactive) | 0.157 µM (active) | 0.239 µM (active) | 0.546 µM (active) | 0.769 µM (active) |  | 0.223 µM (active) | 0.0247 µM (active) |  | 0.365 µM (active) | 26.8 µM (inactive) | 0.575 µM (active) | 0.0141 µM (active) | 0.356 µM (active)
5 | CC1(C)C(O)OC(O)C1(C)C (configuration not stated) | 41.8 µM (inactive) | 89.7 µM (inactive) | > 100 µM (inactive) | > 100 µM (inactive) | 62.4 µM (inactive) | > 100 µM (inactive) | 65.2 µM (inactive) | 33.9 µM (inactive) | 18.1 µM (inactive) | 91 µM (inactive) | > 100 µM (inactive) | > 100 µM (inactive) | > 100 µM (inactive) | 43.4 µM (inactive) |  | > 100 µM (inactive) | > 100 µM (inactive) | 32.8 µM (inactive) | > 100 µM (inactive)
6 | O=C(CC1(O)C(=O)Nc2c(Cl)cc(Cl)cc21)c1ccc(F)cc1 (configuration not stated) | 21.2 µM (inactive) | 46.8 µM (inactive) | 37.2 µM (inactive) | 40 µM (inactive) | 27.3 µM (inactive) | 48 µM (inactive) | 32.7 µM (inactive) | 35.4 µM (inactive) | 33.3 µM (inactive) | 35.8 µM (inactive) | 68.7 µM (inactive) | 92 µM (inactive) | 59 µM (inactive) | 71.6 µM (inactive) |  | 31.3 µM (inactive) | 28.3 µM (inactive) |  | 93.8 µM (inactive)
7 | COc1ccc(C(c2ccc(C(C)C)cc(OC)c2=O)c2ccc(C(C)C)cc(OC)c2=O)cc1 | 16.6 µM (inactive) | 15.9 µM (inactive) | 13.5 µM (inactive) |  | 10.8 µM (inactive) | 21 µM (inactive) | 14.9 µM (inactive) | 11.1 µM (inactive) | 18.1 µM (inactive) | 14.8 µM (inactive) | 13.6 µM (inactive) | 18.9 µM (inactive) | 12 µM (inactive) |  | 14.4 µM (inactive) | 13.7 µM (inactive) |  | 14.3 µM (inactive) | 18.4 µM (inactive)
8 | CC(=O)OC[C@@H]1[C@H]2CC(=O)O[C@H]2C[C@H]1OC(C)=O | > 100 µM (inactive) |  | > 100 µM (inactive) | > 100 µM (inactive) | > 100 µM (inactive) | > 100 µM (inactive) | > 100 µM (inactive) | 94 µM (inactive) |  | > 100 µM (inactive) | > 100 µM (inactive) | > 100 µM (inactive) | > 100 µM (inactive) | > 100 µM (inactive) | > 100 µM (inactive) | > 100 µM (inactive) | > 100 µM (inactive) | > 100 µM (inactive) | > 100 µM (inactive)
9 | CO[C@@](c1ccccc1)(c1nc(C#N)c(N)o1)C(F)(F)F | > 100 µM (inactive) | > 100 µM (inactive) | > 100 µM (inactive) | > 100 µM (inactive) |  | > 100 µM (inactive) | > 100 µM (inactive) | 78.2 µM (inactive) | > 100 µM (inactive) | 77.4 µM (inactive) | > 100 µM (inactive) | > 100 µM (inactive) | > 100 µM (inactive) | > 100 µM (inactive) | 26.6 µM (inactive) | > 100 µM (inactive) | > 100 µM (inactive) | > 100 µM (inactive) | > 100 µM (inactive)
10 | C=C1C(=O)OC2C=C(CCC(C)=O)C(C)C(OC(C)=O)CC12 (configuration not stated) | 16.5 µM (inactive) | 14.2 µM (inactive) | 16.1 µM (inactive) | 9.93 µM (inactive) | 11.8 µM (inactive) | > 10 µM (inactive) | 5.42 µM (inactive) | 5.19 µM (inactive) | 13.6 µM (inactive) | 12.6 µM (inactive) | 12.9 µM (inactive) | 8.83 µM (inactive) | 22.2 µM (inactive) | 8.26 µM (inactive) |  | 17.1 µM (inactive) | 21.5 µM (inactive) |  | 
11 | C[C@]12CC[C@H](OCCC#N)CC1=CC[C@@H]1C2CC[C@]2(C)/C(=N/OCCC#N)CCC12 (some centres not stated) | > 92.7 µM (inactive) | > 50.2 µM (inactive) | > 100 µM (inactive) | > 100 µM (inactive) |  | > 69.2 µM (inactive) | 38.3 µM (inactive) | > 21 µM (inactive) | > 100 µM (inactive) | 21.9 µM (inactive) | > 94.8 µM (inactive) | 26.1 µM (inactive) | 31.3 µM (inactive) | > 74.6 µM (inactive) | 20.9 µM (inactive) | 24.8 µM (inactive) | > 100 µM (inactive) | > 21 µM (inactive) | > 63 µM (inactive)
12 | COC1(C)C(=O)N2C1N(C(=O)OCc1ccccc1)CC2(C)C (configuration not stated) | > 100 µM (inactive) | > 100 µM (inactive) |  | > 100 µM (inactive) | > 100 µM (inactive) | > 100 µM (inactive) | > 100 µM (inactive) | > 100 µM (inactive) | > 100 µM (inactive) | > 100 µM (inactive) | > 100 µM (inactive) |  | > 100 µM (inactive) | > 100 µM (inactive) |  | > 100 µM (inactive) | > 100 µM (inactive) | > 100 µM (inactive) | 
13 | CCCCCCCCCCOC(=O)NCCC | 30.5 µM (inactive) | 16.7 µM (inactive) | 36.1 µM (inactive) | 18.2 µM (inactive) | 21.4 µM (inactive) |  | 29.4 µM (inactive) |  |  | 38.5 µM (inactive) | 25.9 µM (inactive) | 35.5 µM (inactive) | 36.6 µM (inactive) | 28.8 µM (inactive) | 18.7 µM (inactive) | 24.9 µM (inactive) | 64.1 µM (inactive) | 23.9 µM (inactive) | 54.8 µM (inactive)
14 | Cc1ccc(/C=N/NS(=O)(=O)c2ccccc2)cc1 | > 100 µM (inactive) | > 100 µM (inactive) | > 100 µM (inactive) | > 100 µM (inactive) | > 100 µM (inactive) | > 100 µM (inactive) | > 100 µM (inactive) | > 100 µM (inactive) | > 100 µM (inactive) | > 100 µM (inactive) | > 100 µM (inactive) | > 100 µM (inactive) | > 100 µM (inactive) | > 100 µM (inactive) |  | > 100 µM (inactive) | > 100 µM (inactive) | > 100 µM (inactive) | > 100 µM (inactive)
15 | COCCOCC(=O)N(CCn1ccc(NC(c2ccccc2)(c2ccccc2)c2ccccc2)nc1=O)CCn1cnc2nc(N)[nH]c(=O)c21 | > 100 µM (inactive) | > 100 µM (inactive) | > 100 µM (inactive) | > 100 µM (inactive) | > 100 µM (inactive) | > 100 µM (inactive) | > 100 µM (inactive) | > 100 µM (inactive) | > 100 µM (inactive) | > 100 µM (inactive) | > 100 µM (inactive) | > 100 µM (inactive) | > 100 µM (inactive) | > 100 µM (inactive) |  | > 100 µM (inactive) | > 100 µM (inactive) | > 100 µM (inactive) | 
16 | Cc1cc(C)nc(NS(=O)(=O)c2ccc(NC(=O)c3cccc4cc5ccccc5nc34)cc2)n1 | 33 µM (inactive) | 30.3 µM (inactive) | 24.5 µM (inactive) |  | 35.8 µM (inactive) | 62.7 µM (inactive) | 24.2 µM (inactive) | 17.2 µM (inactive) | 23.2 µM (inactive) | 20 µM (inactive) | 69.8 µM (inactive) | 50.9 µM (inactive) | 34.3 µM (inactive) | 31.2 µM (inactive) | 18.7 µM (inactive) | 30.6 µM (inactive) | 35.5 µM (inactive) | 25.5 µM (inactive) | > 100 µM (inactive)
